According to patent publication US4877790A, “Quinazoline derivative, processes for its production, and cerebral dysfunction remedying agent comprising it as active ingredient” (Kanebo Limited, priority 1987, dated 1989):
Counter-ions that a name gives are not always drawn.

Key:
[1] = tested on: complete ischemia by decapitation, male mice of the ddY strain; assay: Anti-hypoxic activity: brain protection against complete ischemia by decapitation (gasping persistent time); type: in vivo; details: oral, Table 2
Procedure: (1) Brain protection against complete ischemia by decapitation:
Male mice of the ddY strain (body weight 20-25 g, 5 per group) were orally given the compound of the invention (dihydrochloride) dissolved in 1% gum arabic solution. One hour later, the mice were decapitated, and the time elapsed until a gasping-like mouth opening movement appearing after decapitation ceased (gasping persistent time) was measured, and compared with that obtained with the control group (the group to which 1% gum arabic solution was administered.

[2] = tested on: formation of lipid peroxide by autoxidation (brain homogenate); assay: Lipid peroxide formation inhibiting activity (antioxidant activity), MDA in brain homogenate; type: biochemical, rats; details: for Antioxidant activity (percent inhibition of autoxidation): 37° C. 30 minutes, n = 4, mean ± standard error
Procedure: Lipid peroxide formation inhibiting activity (antioxidant activity):
The effect of the test compound on the formation of lipid peroxide by autoxidation was determined by the amount of malondialdehyde (MDA) formed.
Rats were decapitated, and the cerebrum was taken out and homogenized with 4 ml, per gram of the cerebrum, of 50 mM phosphate saline-buffer (pH 7.4) and centrifuged (2800 rpm, 10 minutes). The supernatant was taken into a 10 ml test tube to obtain a brain homogenate. It was frozen at -70° C. and stored.
The brain homogenate was defrozen, and immediately then, diluted to 10-fold with the aforesaid phosphate saline-buffer. A 2 ml portion of the dilution was taken into a 10 ml test tube cooled with ice, and used to measure its antioxidant activity. Twenty microliters of an aqueous solution of the compound of this invention (dihydrochloride) was added. The amount of MDA immediately after the addition was measured as shown below (MDA0 time). The mixture was incubated at 37° C. for 30 minutes. […] After cooling with ice, the cooled mixture was centrifuged (2800 rpm, 10 minutes). To 1 ml of the supernatant, 0.5 ml of 0.5 % thiobarbituric acid solution dissolved in 50% acetic acid solution was added, and the mixture was heated at 100° C. for 15 minutes. After cooling with ice, the absorbance of the solution at 532 nm was measured, and the amount of MDA formed was determined (MDA test).
As a control, the amount of MDA (MDAcont) was determined as above.
The antioxidant activity of the compound of the invention was expressed in terms of percent inhibition of autoxidation on the brain homogenate. The calculation was based on the following equation. [formula]

[3] = tested on: deficit of memory induced by scopolamine hydrobromide, male mice of the ddY strain; assay: Anti-scopolamine-induced amnesia activity (one-trial passive avoidance response); type: in vivo; details: i.p. and p.o., Table 5
Procedure: Anti-scopolamine-induced amnesia activity:
Male mice of the ddY strain (body weight 20-25g, 20 per group) were used, and the activity of the test compound on deficit of memory induced by scopolamine hydrobromide (a muscarinic acetylcholine receptor antagonist) was examined using one-trial passive avoidance response as an index.
Using the same experimental device as in Test Example 1, the same acquisition trial and retrieval trial as in Test Example 1 were carried out (one-trial passive avoidance response.)
Scopolamine hydrobromide (1 mg/kg) was intraperitoneally (i.p.) administered to the animals 20 minutes before the acquisition trial. The compound of the invention (dihydrochloride) was dissolved in 1 % gum arabic solution, and intraperitoneally adminstered immediately after the acquisition trial, and orally (p.o.) administered 60 minutes before the acquisition trial.
A 1% solution of gum arabic was administered to the control group.

[4] = tested on: carbon dioxide-induced amnesia, male mice of the ddY strain; assay: Anti-CO2-induced amnesia activity (one-trial passive avoidance response); type: in vivo; details: oral, Table 1
Procedure: Anti-CO2 -induced amnesia activity (the activity of remedying hypoxia-induced deficits in learning and memory):
Male mice of the ddY strain (body weight 20-30 g, 30 per group) were used. Anti-CO2 -induced amnesia activity was determined by using one-trial passive avoidance response as an index.
The experimental device consisted of two compartments, one illuminated and the other dark, with a guillotine door in the boundary of the two compartments permitting free passage of the mice through it.
In an acquisition trial, a mouse was placed in the illuminated compartment and allowed to enter the dark one. As soon as the mouse entered the dark compartment, the door was shut, and an electrical shock (0.5 mA, 0.2 sec.) was applied through the grid floor. Thus, the mouse was caused to learn that it receives an electric shock upon entering the dark room. In a retrieval trial, the mouse was again placed in the illuminated compartment 24 hours after the acquisition trial, and the time elapsed until it entered the dark compartment (response latency) was measured to an extent of 300 seconds at the longest. (One-trial passive avoidance response). […]

[5] = tested on: normobaric hypoxia, male mice of the ddY strain; assay: Anti-hypoxic activity: brain protection against normobaric hypoxia (survival time); type: in vivo; details: oral, Table 3
Procedure: (2) Brain protection against normobaric hydpoxia
Male mice of the ddY strain (body weight 20-25g, 5 per group) were orally administered with the compound of the invention (dihydrochloride) dissolved in a 1% gum arabic solution. One hour after the adminstration, the mouse was put in a transparent plastic container (capacity 27 liters) through which 100% nitrogen was passed at a rate of 80 liters/min. The time elasped until the animal died (the survival time) was measured, and compared with that obtained with the control group (the group to which 1% gum arabic solution was administered).

## C=CCN1CCN(c2nc(OCCCCC)c3ccccc3n2)CC1 [Compound of the invention (2HCl), 2-(4-allyl-l-piperazinyl)-4-pentyloxyquinazoline dihydrochloride]
[1]
  activity of prolonging the gasping persistent time (in words): showed a significant activity of prolonging the gasping persistent time
[2]; 10 μM
  Antioxidant activity (percent inhibition of autoxidation): 6.4 ± 7.7%
[2]; 30 μM
  Antioxidant activity (percent inhibition of autoxidation): 27.1 ± 6.8%
[2]; 100 μM
  Antioxidant activity (percent inhibition of autoxidation): 77.9 ± 3.1%
[2]; 300 μM
  Antioxidant activity (percent inhibition of autoxidation): 93.4 ± 2.2%
[2]; Table 4
  activity of inhibiting formation of lipid peroxide (antioxidant activity) (in words): showed the activity of inhibiting formation of lipid peroxide
[3]
  anti-scopolamine-induced amnesia activity (in words): showed a significant anti-scopolamine-induced amnesia activity
[4]
  anti-carbon dioxide induced amnesia activity (in words): showed a significant anti-carbon dioxide induced amnesia activity
[5]
  activity of prolonging the survival time (in words): showed a significant activity of prolonging the survival time
